{"source": "patent US11732223B2", "about": "“Solvent compositions for removing petroleum residue from a substrate and methods of use thereof” (priority 2004, dated 2023)", "origin": "cited, not measured here", "test_system": "rats", "data": [{"smiles": "CCCCOCCOCCO", "note": "[butyl carbitol]", "values": [{"measurement": "oral LD50", "setting": "oral, rats", "result": "6,560 mg/kg"}, {"measurement": "toxicity rating on the Hodge and Sterner scale", "setting": "rat, in vivo", "result": 5}]}]}
